Patent US8076487B2, “Pyridone derivative and herbicide” (Kumiai Chemical Industry Co., Ltd., priority 2006, dated 2011)

Columns and labels:
Experiment in all cases: Test Example 1: herbicidal effect by soil application to paddy field
Assay type in all cases: in vivo
Conditions in all cases: paddy field soil application; active ingredient 1,000 g per 1 hectare; wettable powder added dropwise to water surface the day after sowing; examined on the 21st day after application
[1] = tested on: Japanese bulrush (Scirpus juncoides Roxb.)
Source text: (§1) Test Example 1 Test on Herbicidal Effect by Soil Application to Paddy Field In a 100 cm2 plastic pot, paddy field soil was filled. After puddling and leveling, seeds of early watergrass (Echinochloa oryzicola […] (Monochoria vaginalis ([…] Japanese bulrush (Scirpus juncoides Roxb.) were sown, and water was filled to be flooded to a water depth of 3 cm. […] Then, on the 21st day after the application to the plants grew in a greenhouse, the herbicidal effect was examined in accordance with a standard shown in Table 34. [table]

[2] = tested on: early watergrass (Echinochloa oryzicola Vasing)
Source text: as §1

[3] = tested on: heartshape false pickerelweed (Monochoria vaginalis (Burm.f.) C.Presl)
Source text: as §1

| Compound | herbicidal effect, Scirpus juncoides Roxb. [1] | herbicidal effect, Echinochloa oryzicola Vasing [2] | herbicidal effect, Monochoria vaginalis (Burm. f.) C. Presl [3] |
| --- | --- | --- | --- |
| COc1ccc(-n2c(C(F)(F)F)ccc(C(=O)c3cnn(C)c3O)c2=O)cc1 [IV-66] | 5 (90% or more of herbicidal effect and crop phytotoxicity) | 5 (90% or more of herbicidal effect and crop phytotoxicity) | 5 (90% or more of herbicidal effect and crop phytotoxicity) |
| CCCS(=O)(=O)Oc1c(C(=O)c2ccc(C(F)(F)F)n(-c3cccc([S+](C)[O-])c3)c2=O)cnn1C (stereo not drawn) [IV-73] | 4 (70 to less than 90% of herbicidal effect and crop phytotoxicity) | 4 (70 to less than 90% of herbicidal effect and crop phytotoxicity) | 3 (50 to less than 70% of herbicidal effect and crop phytotoxicity) |
| CCCS(=O)(=O)Oc1c(C(=O)c2ccc(C(F)(F)F)n(-c3cccc(S(C)(=O)=O)c3)c2=O)cnn1C [IV-75] | 5 (90% or more of herbicidal effect and crop phytotoxicity) | 5 (90% or more of herbicidal effect and crop phytotoxicity) | 5 (90% or more of herbicidal effect and crop phytotoxicity) |
| COc1ccc(-n2c(C(F)(F)F)ccc(C(=O)c3cnn(C)c3O)c2=O)c(OC)c1 [IV-76] | 5 (90% or more of herbicidal effect and crop phytotoxicity) | 4 (70 to less than 90% of herbicidal effect and crop phytotoxicity) | 5 (90% or more of herbicidal effect and crop phytotoxicity) |
| CCCS(=O)(=O)Oc1c(C(=O)c2ccc(C(F)(F)F)n(-c3ccc(Cl)c(OC)c3)c2=O)cnn1C [IV-91] | 5 (90% or more of herbicidal effect and crop phytotoxicity) | 4 (70 to less than 90% of herbicidal effect and crop phytotoxicity) | 4 (70 to less than 90% of herbicidal effect and crop phytotoxicity) |
| COc1cccc(Cn2c(C(F)(F)F)ccc(C(=O)c3cnn(C)c3O)c2=O)c1 [IV-103] | 4 (70 to less than 90% of herbicidal effect and crop phytotoxicity) | 4 (70 to less than 90% of herbicidal effect and crop phytotoxicity) | 5 (90% or more of herbicidal effect and crop phytotoxicity) |
| CCCS(=O)(=O)Oc1c(C(=O)c2ccc(C(F)(F)F)n(Cc3cccc(OC)c3)c2=O)cnn1C [IV-104] | 4 (70 to less than 90% of herbicidal effect and crop phytotoxicity) | 5 (90% or more of herbicidal effect and crop phytotoxicity) | 5 (90% or more of herbicidal effect and crop phytotoxicity) |
| Cn1ncc(C(=O)c2ccc(C(F)(F)F)n(CC3CCCO3)c2=O)c1OC(=O)c1ccc(C(C)(C)C)cc1 (stereo not drawn) [IV-132] | 5 (90% or more of herbicidal effect and crop phytotoxicity) | 5 (90% or more of herbicidal effect and crop phytotoxicity) | 5 (90% or more of herbicidal effect and crop phytotoxicity) |
| Cn1ncc(C(=O)c2ccc(C(F)(F)F)n(CC3CCCO3)c2=O)c1OC(=O)c1c(F)cc(F)cc1F (stereo not drawn) [IV-134] | 5 (90% or more of herbicidal effect and crop phytotoxicity) | 5 (90% or more of herbicidal effect and crop phytotoxicity) | 5 (90% or more of herbicidal effect and crop phytotoxicity) |
| Cc1cc(C)c(C(=O)Oc2c(C(=O)c3ccc(C(F)(F)F)n(CC4CCCO4)c3=O)cnn2C)c(C)c1 (stereo not drawn) [IV-135] | 5 (90% or more of herbicidal effect and crop phytotoxicity) | 5 (90% or more of herbicidal effect and crop phytotoxicity) | 5 (90% or more of herbicidal effect and crop phytotoxicity) |
| Cn1ncc(C(=O)c2ccc(C(F)(F)F)n(CC3CCCO3)c2=O)c1OCc1ccc(C(F)(F)F)cc1 (stereo not drawn) [IV-137] | 3 (50 to less than 70% of herbicidal effect and crop phytotoxicity) | 4 (70 to less than 90% of herbicidal effect and crop phytotoxicity) | 4 (70 to less than 90% of herbicidal effect and crop phytotoxicity) |
| Cc1cccc(COc2c(C(=O)c3ccc(C(F)(F)F)n(CC4CCCO4)c3=O)cnn2C)n1 (stereo not drawn) [IV-138] | 5 (90% or more of herbicidal effect and crop phytotoxicity) | 5 (90% or more of herbicidal effect and crop phytotoxicity) | 5 (90% or more of herbicidal effect and crop phytotoxicity) |
| Cc1ccc(S(=O)(=O)Oc2c(C(=O)c3ccc(C(F)(F)F)n(CC4CCCO4)c3=O)cnn2C)cc1 (stereo not drawn) [IV-141] | 5 (90% or more of herbicidal effect and crop phytotoxicity) | 5 (90% or more of herbicidal effect and crop phytotoxicity) | 5 (90% or more of herbicidal effect and crop phytotoxicity) |
| Cn1ncc(C(=O)c2ccc(C(F)(F)F)n(C)c2=O)c1OCc1ccc(Cl)cc1 [IV-191] | 5 (90% or more of herbicidal effect and crop phytotoxicity) | 5 (90% or more of herbicidal effect and crop phytotoxicity) | 5 (90% or more of herbicidal effect and crop phytotoxicity) |
| Cn1ncc(C(=O)c2ccc(C(F)(F)F)n(C)c2=O)c1OCc1ccc(C(C)(C)C)cc1 [IV-192] | 5 (90% or more of herbicidal effect and crop phytotoxicity) | 5 (90% or more of herbicidal effect and crop phytotoxicity) | 5 (90% or more of herbicidal effect and crop phytotoxicity) |
| Cc1ccc(S(=O)(=O)Oc2c(C(=O)c3ccc(C(F)(F)F)n(C)c3=O)cnn2C)cc1 [IV-194, 4-[1,2-dihydro-1-methyl-2-oxo-6-(trifluoromethyl)pyridine-3-carbonyl]-1-methyl-5-tosyloxy-1H-pyrazole] | 5 (90% or more of herbicidal effect and crop phytotoxicity) | 5 (90% or more of herbicidal effect and crop phytotoxicity) | 5 (90% or more of herbicidal effect and crop phytotoxicity) |
| CCn1ncc(C(=O)c2ccc(C(F)(F)F)n(CC3CCCO3)c2=O)c1OC(=O)c1c(Cl)cc(Cl)cc1Cl (stereo not drawn) [IV-206] | 5 (90% or more of herbicidal effect and crop phytotoxicity) | 5 (90% or more of herbicidal effect and crop phytotoxicity) | 5 (90% or more of herbicidal effect and crop phytotoxicity) |
| CCCn1ncc(C(=O)c2ccc(C(F)(F)F)n(C)c2=O)c1O [IV-213] | 5 (90% or more of herbicidal effect and crop phytotoxicity) | 5 (90% or more of herbicidal effect and crop phytotoxicity) | 5 (90% or more of herbicidal effect and crop phytotoxicity) |
| C=CCn1ncc(C(=O)c2ccc(C(F)(F)F)n(C)c2=O)c1O [IV-225] | 5 (90% or more of herbicidal effect and crop phytotoxicity) | 5 (90% or more of herbicidal effect and crop phytotoxicity) | 5 (90% or more of herbicidal effect and crop phytotoxicity) |
| C=CCn1ncc(C(=O)c2ccc(C(F)(F)F)n(C)c2=O)c1OCc1ccccc1 [IV-228] | 5 (90% or more of herbicidal effect and crop phytotoxicity) | 5 (90% or more of herbicidal effect and crop phytotoxicity) | 5 (90% or more of herbicidal effect and crop phytotoxicity) |
| Cc1ccc(S(=O)(=O)Oc2c(C(=O)c3ccc(C(F)(F)F)n(C)c3=O)c(C)nn2C)cc1 [IV-236] | 5 (90% or more of herbicidal effect and crop phytotoxicity) | 5 (90% or more of herbicidal effect and crop phytotoxicity) | 5 (90% or more of herbicidal effect and crop phytotoxicity) |
| Cc1nn(C)c(O)c1C(=O)c1ccc(C(F)(F)F)n(CC2CCCO2)c1=O (stereo not drawn) [IV-238] | 5 (90% or more of herbicidal effect and crop phytotoxicity) | 4 (70 to less than 90% of herbicidal effect and crop phytotoxicity) | 5 (90% or more of herbicidal effect and crop phytotoxicity) |
| CCCS(=O)(=O)Oc1c(C(=O)c2ccc(C(F)(F)F)n(CC3CCCO3)c2=O)c(C)nn1C (stereo not drawn) [IV-239] | 5 (90% or more of herbicidal effect and crop phytotoxicity) | 5 (90% or more of herbicidal effect and crop phytotoxicity) | 5 (90% or more of herbicidal effect and crop phytotoxicity) |
| Cc1ccc(S(=O)(=O)Oc2c(C(=O)c3ccc(C(F)(F)F)n(CC4CCCO4)c3=O)c(C)nn2C)cc1 (stereo not drawn) [IV-240] | 5 (90% or more of herbicidal effect and crop phytotoxicity) | 5 (90% or more of herbicidal effect and crop phytotoxicity) | 5 (90% or more of herbicidal effect and crop phytotoxicity) |
| CCCS(=O)(=O)Oc1c(C(=O)c2ccc(Cl)n(C)c2=O)cnn1C [IV-242] | 5 (90% or more of herbicidal effect and crop phytotoxicity) | 5 (90% or more of herbicidal effect and crop phytotoxicity) | 4 (70 to less than 90% of herbicidal effect and crop phytotoxicity) |
